One assay deals with miR-221 and miR-222. Kind of assay: qRT-PCR of miR-221 and miR-222 in GTL16 cells. Type of assay: cell-based, human. Conditions: GTL-16 cells, MET inhibition, compared with the untreated cells. The protocol: Real-time PCR was performed using a standard TaqMan PCR Kit protocol on an Applied Biosystems 7900HT Sequence Detection System (Applied Biosystems). The 10 μl PCR reaction included 0.67 μl RT product, 1 μl TaqMan Universal PCR Master Mix (Applied Biosystems), […]. The reactions were incubated in a 96-well plate at 95° C. for […], followed by 40 cycles of 95° C. for 15 s and 60° C. for 1 min. All reactions were run in triplicate. The threshold cycle (CT) is defined as the fractional cycle number at which the fluorescence passes the fixed threshold. The comparative CT method for relative quantization of gene expression (Applied Biosystems) was used to determine miRNA expression levels. The y axis represents the 2(-CT), or the relative expression of the different miRs. miRs expression was calculated relative to U44 and U48 rRNA and multiplied by 104. Experiments were carried out in triplicate for each data point, and data analysis was performed by using software (Bio-Rad).
A general note: In qPCR the cycle at which signal appears reflects the starting amount.

The test system of another assay is PTEN and TIMP3. Put plainly: Western blot of PTEN and TIMP3 in GTL16 cells. The format is cell-based, human. Conditions: GTL16 cells treated for 24 h with 4 μM. The protocol:
Total proteins from NSCLC and HCC cells were extracted with radioimmuno-precipitation assay (RIPA) buffer ([…] NaCl, […] Tris-HCl, pH 7.5, 1% Triton, 0.1% SDS, 0.1% sodium deoxycholate and 1% Nonidet P40). Sample extract (50 μg) was resolved on 7.5-12% SDS-polyacrylamide gels (PAGE) using a mini-gel apparatus (Bio-Rad Laboratories) and transferred to Hybond-C extra nitrocellulose. Membranes were blocked for 1 h with 5% nonfat dry milk in Tris-buffered saline containing 0.05% Tween 20, incubated overnight with primary antibody, washed and incubated with secondary antibody, and visualized by chemiluminescence.
The following primary antibodies were used: anti-PTEN, anti-c-Jun, anti-p-c-Jun, anti-Fos, anti-p-JNK, anti-MMP3, anti-Mc1-1 (Santa Cruz), anti-TIMP3 (Millipore) anti-PI3K (BD Biosciences), anti-ERKs, anti-phospho ERKs, anti-AKT, anti-p-AKT, anti-GSK3b, anti-p-GSK3b (Ser9), anti-PAK1 anti-caspase-8,-3 and -9, anti-PARP, anti-cytochrome c (Cell signaling) and anti-MMP9, anti-FADD (Abcam), anti-1-actin antibody (Sigma). A secondary anti-rabbit or anti-mouse immunoglobulin G (IgG) antibody peroxidase conjugate (Chemicon) was used.
A general note: Immunoblotting shows a protein as a band on a membrane.

Another assay concerns HCC-derived cell lines. Put plainly: Proliferation (MTT) assay on HCC-derived cell lines exposed to TRAIL. Conditions: TRAIL 400 ng/ml 24 h. Type of assay: cell-based, human. The protocol:
Cells were plated in 96-well plates in triplicate and incubated at 37° C. in a 5% CO2 incubator. Super-Killer TRAIL (Alexis Biochemicals) was used for 24-48 h at 400 ng ml-1. Cell viability was examined with 3-(4,5-dimethylthiazol-2-yl)-2,5-dipheniltetrazolium bromide (MTT)-Cell Titer 96 AQueous One Solution Cell Proliferation Assay (Promega), according to the manufacturer's protocol. Metabolically active cells were detected by adding 20 μl of MTT to each well. After 1 h of incubation, the plates were analyzed in a Multilabel Counter (Bio-Rad Laboratories). Apoptosis was assessed using Annexin V-FITC apoptosis detection kits followed by flowcytometric analysis and caspase 3/7 activity. Cells were seeded at 1.8106 cells per 100 mm dish, grown overnight in 10% FBS/RPMI, washed with phosphate-buffered saline (PBS) and then treated for 24 h with 400 ng/ml TRAIL. Following incubation, cells were washed with cold PBS and removed from the plates by trypsinization. […] Statistical analysis was done using two sample t test, assuming equal variance, and P value was calculated based on two-tailed test. For detection of caspase 3/7 activity, cells were cultured in 96-well plates and treated with TRAIL 400 ng/ml and analyzed using Caspase-Glo 3/7 Assay kit (Promega) according to the manufacturer's instructions. Continuous variables are expressed as mean values±standard deviation (s.d.).

In the next assay the test system is H460 xenograft. Kind of assay: H460 xenograft in nude mice treated with TRAIL. The format is in vivo. Conditions: H460 shPTEN and shTIMP3 vs sh control, TRAIL 10 mg/kg/d ip, 35 days. The protocol: (§1) Animal studies were performed according to institutional guidelines. NCI-H460 cells were stable transfected by using shPTEN and TIMP3 plasmids (Santa Cruz); Calu-1 cells were stable transfected with shMET. After the selection in puromycin for 10 days 5 106 (H460) or 7106 (Calu-1) viable cells were injected s.c. into the right flanks of 6-wk-old male nude mice (Charles RiverBreeding Laboratories, Wilmington, Mass.). Treatment started five days (H460 xenograft) or ten days (Calu-1 xenograft) from tumor cell inoculation by daily ip injections of TRAIL/Apo2 (10 mg/kg/d) or vehicle (PBS) for two cycles of 5 days. Tumor size was assessed every five days by a digital caliper. The tumor volumes were determined by measuring the length (1) and the width (w) and calculating the volume (V=lw2/2). 35 days after injection, mice were sacrificed and tumors samples were analyzed by western blot for PTEN, TIMP3 and MET expression. Statistical significance between control and treated animals was evaluated by using Student's t test. Animal experiments were conducted after approval of the Institutional animal care and use committee, Ohio State University.

The test system of the next assay is Calu-1 xenograft. Kind of assay: Calu-1 xenograft in nude mice treated with TRAIL. Conditions: Calu-1 shMET vs sh control, TRAIL 10 mg/kg/d ip. The format is in vivo. The protocol:
as §1

In the case of `Cc1[nH]c(/C=C2\C(=O)Nc3ccc(S(=O)(=O)N(C)c4cccc(Cl)c4)cc32)c(C)c1C(=O)N1CCN(C)CC1` [SU11274], in the assay on miR-221 and miR-222, the “miR-221 and miR-222 downregulated (qRT-PCR)” value was “about 40%”. The “miR-221 and miR-222 targets (PTEN, TIMP3) expression levels, western blot” value in the assay on PTEN and TIMP3 was “increased miR-221 and miR-222 targets expression levels”.

Regarding TRAIL, the “cell proliferation / TRAIL-induced cell death (MTT)” value in the assay with HCC-derived cell lines (HepG2, Sk-Hep1 and Huh 7, low miR-221-miR-222 expression) is “underwent TRAIL-induced cell death”; in the assay with HCC-derived cell lines (PLC/PRF-5 and Snu-387, high miR-221-miR-222 expression) it was “did not display sensitivity”. Besides, the “tumor engraftment size / TRAIL resistance” value in the assay with H460 xenograft is recorded as “increases TRAIL resistance in vivo”. In the assay on Calu-1 xenograft, the “tumor growth / sensitivity to TRAIL” value was “more sensitive to TRAIL inducing apoptosis”.

Source of the values: patent US9212396B2, “Materials and methods useful for affecting tumor cell growth, migration and invasion” (The Ohio State University, priority 2009, dated 2015).
